According to patent US6960591B2, “Propane-1,3-dione derivative” (Yamanouchi Pharmaceutical Co., Ltd., priority 2000, dated 2005):
Counter-ions that a name gives are not always drawn.

Target: T1, human GnRH receptor (Homo sapiens, UniProt P30968)
T1 construct: expressed in transfected cells; membrane fraction
T1 sequence (P30968 1-328): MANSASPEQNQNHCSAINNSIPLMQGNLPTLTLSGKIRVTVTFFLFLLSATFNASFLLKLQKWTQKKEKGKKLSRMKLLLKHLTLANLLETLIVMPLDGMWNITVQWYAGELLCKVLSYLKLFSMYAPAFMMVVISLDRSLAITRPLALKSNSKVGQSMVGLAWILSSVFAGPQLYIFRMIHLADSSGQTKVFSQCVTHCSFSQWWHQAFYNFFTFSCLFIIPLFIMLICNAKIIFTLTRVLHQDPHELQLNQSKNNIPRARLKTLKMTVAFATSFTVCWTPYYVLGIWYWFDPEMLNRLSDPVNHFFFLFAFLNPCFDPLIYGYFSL
Assay: Test of in vitro GnRH receptor antagonism: 125I-D-Trp6-LHRH binding inhibition
Details: inhibition of 0.1 nM 125I-D-Trp6-LHRH binding; membrane fractions of CHO cells expressing human GnRH receptor; 4° C. for 3 hours; read-out: IC50 value (concentration at which PMB equals 50%)
Protocol: In the following, in vitro GnRH receptor antagonistic effect of the pharmaceutical drugs and compounds of the invention was evaluated by inhibition of binding of ^125I-D-Trp^6-LHRH to human GnRH receptor.
1. Test of In Vitro GnRH Receptor Antagonism
(1) Preparation of Human GnRH Receptor-Expressing CHO (Chinese Hamster Ovary) Cells
Expression of human […] was carried out in a similar manner to a common method for protein expression (Chapter 9 In: Current Protocols In Molecular Biology: ed. by F. M. Ausubel et al., Greene Publishing Associates and Wiley-Interscience, 9.0.1-9.9.6 (1987), S. S. Kaker et al., Biol. Biophys. Res. Commun. 189, 289-295 (1992), R. Grosse et al., Mol. Endocrinol. 11, 1305-1318 (1997)). CHO cells were cultured (medium: αMEM, 10% FCS, containing an antibiotic-antimycotic agent) with an expression vector which has human GnRH receptor gene (SEQ ID No.: 1) and a transfection reagent FuGENE6 (manufactured by Boehringer-Mannheim) for 24 hours for transfection, whereby the CHO cells stably expressing human GnRH receptor (SEQ ID No.: 2, S. S. Kaker et al., Biol. Biophys. Res. Commun, 189, 289-295 (1992)) were obtained. The expression of the aimed receptor was confirmed by PCR method.
(2) Preparation of CHO Cell Membrane Fraction Containing Human GnRH Receptor
The CHO cells expressing the human GnRH receptor (3×10^8 cells), prepared in the above (1), were suspended in phosphate buffered saline (PBS) and centrifuged for 3 minutes at 100×G. The pellet suspended in 100 ml of a homogenate buffer (10 mM NaHCO3, 5 mM EDTA (ethylenediaminetetraacetic acid), pH 7.5) was homogenized using a Polytron homogenizer. After the resulting homogenate was centrifuged for 15 minutes at 400×G, the supernatant was centrifuged for 1 hour at 100,000×G. The membrane fraction obtained as a pellet was suspended in 60 ml of storage buffer (25 mM Tris-HCl, 1 mM EDTA, 10 μg/ml a protease inhibitor (Pefabloc SC (manufactured by Merck)), 1 μg/ml pepstatin A, 20 μg/ml leupeptin, 0.03% sodium azide, pH 7.5), and stored at −80° C. until use. […]
The membrane fractions of CHO cells expressing the human GnRH receptor which were prepared in the above (2) were diluted with assay buffer (HBSS (Hanks balanced salt solution), 20 mM HEPES, 0.1% BSA (bovine serum albumin), 100 μg/ml bacitracin, pH 7.4) so as to be 20 μg/tube, and were dispensed into tubes in an amount of 148 μl. […] The filters were washed three times with 1 ml of assay buffer and the radioactivity on the filter was measured using a γ-counter. Binding inhibition (%) (PMB) of each test compound at various concentrations were determined according to the following equation: PMB=(SB−NSB)/(TB−NSB)×100 (wherein TB: total binding radioactivity, SB: radioactivity when a test compound was added, NSB: non-specific binding radioactivity). […]

SMILES	IC50 [nM]
Nc1cccc(C(=O)C(C(=O)c2cc(F)cc(F)c2)=C2Nc3ccccc3N2)c1 [Example 40, 1-(3-aminophenyl)-3-(3,5-difluorophenyl)-2-(1,3-dihydro-2H-benzimidazol-2-ylidene)propane-1,3-dione hydrochloride]	0.1 to 1
O=C(C(C(=O)c1cccc(CNCCc2ccncc2)c1)=C1Nc2ccccc2N1)c1ccccc1 [Example 79, 2-(1,3-dihydro-2H-benzimidazol-2-ylidene)-1-phenyl-3-(3-{[(2-pyridin-4-ylethyl)amino]methyl}phenyl)propane-1,3-dione hydrochloride]	0.1 to 1
O=C(C(C(=O)c1cccc(NCc2c[nH]cn2)c1)=C1Nc2ccccc2N1)c1cc(F)cc(F)c1 [Example 83, 1-(3,5-difluorophenyl)-2-(1,3-dihydro-2H-benzimidazol-2-ylidene)-3-{3-[(1H-imidazol-4-ylmethyl)amino]phenyl}propane-1,3-dione hydrochloride]	0.1 to 1
O=C(C(C(=O)c1cc(F)cc(F)c1)=C1Nc2ccc(OCc3cccnc3)cc2N1)c1ccccc1 [Example 402, 1-(3,5-difluorophenyl)-2-[5-(pyridin-3-ylmethoxy)-1,3-dihydro-2H-benzimidazol-2-ylidene]-3-phenylpropane-1,3-dione oxalate]	0.1 to 1
